Data published in patent US12576167B2, “Gadolinium-based compound, method for producing same, and MRI contrast agent containing same” (KYUNGPOOK NATIONAL UNIVERSITY INDUSTRY-ACADEMIC COOPERATION …, priority 2020, dated 2026).

Key:
[1] = Measurement of relaxivity (r1, r2), phantom in 3 T MRI; assay type: physicochemical; conditions: 0.0625-1 mM in tertiary distilled water, linear regression, in mM-1 s-1 (unit assumed)
Description: Relaxivity (r1, r2) of each of Gd-DO3A-Ga synthesized using the method according to Present Example 2, and Gadovist® and Dotarem® as commercial cyclic contrast agents as comparative groups.
Specifically, a phantom was prepared by diluting the gadolinium complex to 5 concentrations (0.0625, 0.125, 0.25, 0.5, 1 mM) using tertiary distilled water, and then T1 and T2 relaxation times thereof were measured in 3 T MRI. Thus, R (relaxivity=1/T) thereof at each of the concentrations was calculated and a result of the relaxivity of the gadolinium complex was obtained via linear regression analysis. (See following Table 1 and FIG. 5)

[2] = target: amyloid beta polymer (oligomeric Aβ) (Homo sapiens, UniProt P05067); experiment: Phantom test for targeting ability toward amyloid beta polymer, 9.4 T MR; assay type: binding; conditions: amyloid beta polymer incubated with contrast agent at 37° C. for 24 hours, washed pellet, FIG. 7
Description: HFIP (221.5 μl) was added to amyloid beta (1 mg, 1 mM) to produce a mixture which in turn was shaken for 1 hour at room temperature using a shaker to remove preaggregation. Next, the amyloid beta from which the pre-aggregation was removed was dried. Then, DMSO (221.5 μl) was added thereto to adjust a concentration thereof to 1 mM. Then, a suspension thereof was produced using a mixer and a sonicator, and PBS (1×, pH 7.4, 878.5 μl) was added to the suspension to adjust a concentration of the suspension to 0.2 mM. Thereafter, the suspension was subjected to incubation for 4 days at 37° C. using a shaker. Then, amyloid beta polymer (oligomeric Aβ) that has been polymerized was dispensed by 200 μl. Then, a further mixed solution in which the compound Gd-DO3A-Ga was dissolved in PBS at a concentration of 2 mM was added thereto at 20 μl amount. A further mixed solution in which the commercial contrast agent (Gadovist®) was dissolved in PBS at a concentration of 2 mM was added thereto at 20 μl amount. Then, each of two resulting mixtures was incubated at 37° C. for 24 hours using a shaker. After completion of the incubation, a supernatant was removed therefrom via centrifugation, and then the amyloid beta polymer was washed with PBS, and then 200 μl of PBS:DMSO=9:1 solution was added to a pellet thereof to prepare MRI phantom samples. […]

amyloid beta polymer (oligomeric Aβ), sequence (P05067 672-713 limits assumed): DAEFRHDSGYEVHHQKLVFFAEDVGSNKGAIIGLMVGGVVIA

relaxivity r1 [1]	relaxivity r2 [1]	MR signal intensity (contrast enhancement effect) of phantom versus control incubated only with amyloid beta polymer [2]	Structure (SMILES)
3.40 ± 0.07	3.88 ± 0.16		CNC[C@H](O)[C@@H](O)[C@H](O)[C@H](O)CO.O=C([O-])CN1CCN(CC(=O)[O-])CCN(CC(=O)O)CCN(CC(=O)[O-])CC1.[Gd+3] [Dotarem ®]
3.85 ± 0.09	4.87 ± 0.11	no significant difference	O=C([O-])CN1CCN(CC(=O)[O-])CCN([C@H](CO)[C@H](O)CO)CCN(CC(=O)[O-])CC1.[Gd+3] (racemic) [Gadovist ®]
